Measurements reported in ChEMBL document CHEMBL4627398 (J Med Chem, 2020).
Converted amounts (≈) assume the structure as drawn. One block for each compound: values may come before it.

Assays:
[1] = Metabolic stability in human liver microsomes incubated for 60 mins; type: ADME, Microsome; conditions: read-out: Stability
[2] = Clearance in monkey at 0.1 mg/kg, iv; type: ADME, organism-based, Macaca mulatta; conditions: rhesus monkey, in vivo
[3] = Metabolic stability in monkey liver microsomes incubated for 60 mins; type: ADME, Macaca mulatta, Microsome; conditions: rhesus monkey, read-out: Stability
[4] = MRT in rat at 1 mg/kg, iv; type: ADME, organism-based; conditions: in vivo
[5] = Oral bioavailability in rat at 10 mg/kg; type: ADME, organism-based; conditions: in vivo
[6] = MRT in dog at 0.3 mg/kg, iv; type: ADME, organism-based, Canis lupus familiaris; conditions: in vivo
[7] = Volume of distribution at steady state in rat at 1 mg/kg, iv; type: ADME, organism-based; conditions: in vivo, read-out: Vdss
[8] = Cmax in rat at 10 mg/kg, po; type: ADME, organism-based; design: dose 10 mg/kg, route oral; conditions: in vivo
[9] = Oral bioavailability in dog at 1 mg/kg; type: ADME, organism-based, Canis lupus familiaris; conditions: in vivo
[10] = Tmax in rat at 10 mg/kg, po; type: ADME, organism-based; conditions: in vivo
[11] = Metabolic stability in dog liver microsomes incubated for 60 mins; type: ADME, Canis lupus familiaris, Microsome; conditions: read-out: Stability
[12] = Terminal half life in dog at 0.3 mg/kg, iv; type: ADME, organism-based, Canis lupus familiaris; conditions: in vivo, read-out: beta t1/2 (converted)
[13] = Solubility of the compound in human Caco2 cells; type: ADME, cell-based; conditions: Caco-2 cells
[14] = Metabolic stability in rat liver microsomes incubated for 60 mins; type: ADME, Microsome; conditions: read-out: Stability
[15] = Tmax in dog at 1 mg/kg, po; type: ADME, organism-based, Canis lupus familiaris; conditions: in vivo
[16] = Solubility of the compound in PBS buffer; type: physicochemical
[17] = Solubility of the compound in FaSSIF; type: physicochemical
[18] = Terminal half life in rat at 1 mg/kg, iv; type: ADME, organism-based; conditions: in vivo, read-out: beta t1/2 (converted)
[19] = Cmax in dog at 1 mg/kg, po; type: ADME, organism-based, Canis lupus familiaris; design: dose 1 mg/kg, route oral; conditions: in vivo
[20] = Solubility of the compound in FeSSIF; type: physicochemical
[21] = Metabolic stability in rat hepatocytes incubated for 60 mins; type: ADME, cell-based, Hepatocyte; conditions: read-out: Stability
[22] = Total clearance in dog at 0.3 mg/kg, iv; type: ADME, organism-based, Canis lupus familiaris; conditions: in vivo
[23] = Metabolic stability in monkey hepatocytes incubated for 60 mins; type: ADME, cell-based, Macaca mulatta, Hepatocyte; conditions: rhesus monkey, read-out: Stability
[24] = Total clearance in rat at 1 mg/kg, iv; type: ADME, organism-based; conditions: in vivo
[25] = Volume of distribution at steady state in dog at 0.3 mg/kg, iv; type: ADME, organism-based, Canis lupus familiaris; conditions: in vivo, read-out: Vdss
[26] = Lipophilicity, logD of the compound at pH 7; type: physicochemical; conditions: buffer
[27] = Metabolic stability in human hepatocytes incubated for 60 mins; type: ADME, cell-based, Hepatocyte; conditions: read-out: Stability
[28] = Apparent permeability in human Caco2 cells; type: ADME, cell-based; conditions: Caco-2

- remaining at 1 h [1]: 99.4%
- clearance [2]: 5.83 mL/min/kg
- remaining at 1 h [3]: 95.4%
Structure (SMILES): N#CCC(=O)N1CC(F)(F)C12CCN(c1ncnc3[nH]ccc13)C2 (single isomer, unassigned)

- remaining at 1 h [1]: 88.4%
- remaining at 1 h [3]: 64.6%
Structure (SMILES): N#CCC(=O)N1CC(F)(F)C12CCCN(c1ncnc3[nH]ccc13)C2 (single isomer, unassigned)

- remaining at 1 h [1]: 73.4%
- remaining at 1 h [3]: 25.1%
Structure (SMILES): CC1CN(C(=O)CC#N)C12CCCN(c1ncnc3[nH]ccc13)C2 (stereo not given)

- remaining at 1 h [1]: 75.7%
- remaining at 1 h [3]: 29.4%
Structure (SMILES): N#CCC(=O)N1CCCC12CCCN(c1ncnc3[nH]ccc13)C2 (single isomer, unassigned)

- MRT [4]: 1 h
- remaining at 1 h [1]: 97.4%
- bioavailability [5]: 78%
- MRT [6]: 3.2 h
- Vd [7]: 2.1 L/kg
- Cmax [8]: 2.5 ng/mL
- bioavailability [9]: 124%
- clearance [2]: 4.83 mL/min/kg
- Tmax [10]: 1.5 h
- remaining at 1 h [11]: 97.2%
- half-life [12]: 2.3 h
- solubility [13]: 1 µM (≈ 0.31 µg/mL)
- remaining at 1 h [14]: 90.2%
- Tmax [15]: 0.9 h
- solubility [16]: > 95 µM
- remaining at 1 h [3]: 99.6%
- solubility [17]: > 475 µM
- half-life [18]: 1.7 h
- Cmax [19]: 1.9 ng/mL
- solubility [20]: > 475 µM
- remaining at 1 h [21]: 94.7%
- clearance [22]: 6.17 mL/min/kg
- remaining at 1 h [23]: 84.8%
- clearance [24]: 35 mL/min/kg
- Vd [25]: 1.2 L/kg
- logD [26]: 0.6
- remaining at 1 h [27]: 99.3%
- Papp [28]: 0.033 ×10⁻⁶ cm/s
Structure (SMILES): C[C@H]1CN(C(=O)CC#N)[C@]12CCN(c1ncnc3[nH]ccc13)C2 [DELGOCITINIB]

- remaining at 1 h [1]: 93.4%
- clearance [2]: 12.7 mL/min/kg
- remaining at 1 h [3]: 85.2%
Structure (SMILES): N#CCC(=O)N1CCC12CCCN(c1ncnc3[nH]ccc13)C2 (single isomer, unassigned)
